Assay results reported in patent US9844535B2, “SHP2 inhibitors and methods of treating autoimmune and/or glomerulonephritis-associated diseases using SHP2 inhibitors” (Indiana University Research and Technology Corporation, priority 2013, dated 2017).

Experiments:
ERK and AKT signaling = experiment: Immunoblot of ERK/AKT signaling in tissue lysates of inhibitor-treated MRL/lpr mice; assay type: in vivo, mouse; details: 7.5 mg/kg daily for 4 weeks
Protocol: Briefly, female MRL/MpJ-fas lpr (MRL/lpr), MRL/Mpj and C57BL/6J mice were purchased from the Jackson Laboratory (Bar Harbor, Me.). For experiments, mice within each group were ip injected with either vehicle (DMSO) or the SHP2 inhibitor (7.5 mg/kg/per day). […] Body weight was measured daily and treatment dosage was adjusted accordingly. At the end of the treatment period, mice were sacrificed with CO2 exsanguination and SLE targeted organs were removed. For each mouse, spleen, kidney, and heart weight were calculated. In addition, total animal body weight and tibia length were measured. Peripheral blood/serum was also collected for use in the cytokine assays described below.
Tissues (spleen, kidney, heart) isolated from either vehicle (DMSO) treated or SHP2 inhibitor treated WT C57/B16, MRL/MpJ, or MRL/lpr female mice were dissected, perfused in PBS, and immediately frozen in liquid N2. Whole-cell lysates were prepared by homogenizing the tissue in radioimmunoprecipitation (RIPA) buffer (25 mmol/l Tris-HCl [pH 7.4], 150 mmol/l NaCl, 0.1% SDS, 1% NP-40, 0.5% sodium deoxycholate, 5 mmol/l EDTA, 1 mmol/l NaF, 1 mmol/l sodium orthovanadate, and a protease cocktail) at 4° C., followed by clarification at 14,000 g. […] Bands were visualized with enhanced chemiluminescence and quantified by densitometry (developed by Wayne Rasband; ImageJ 1.41 software, http://rsbweb.nih.gov/ij/). […]

[1] = tested on: human T cells isolated from SLE patients; experiment: Cultured human SLE T cells: IFNγ secretion, proliferation, viability; assay type: cell-based
Source text: All SLE human cells in the following Examples were isolated from SLE patients diagnosed according to the American College of Rheumatology classification criteria and recruited from the Division of Rheumatology at Beth Israel Deaconess Medical Center, Boston, Mass. under IRB protocol 2006-P-0298. Healthy gender- and age-matched control cells were also used for the Examples herein. Briefly, peripheral venous blood was collected in heparin-lithium tubes and peripheral blood mononuclear cells were prepared with ficoll-Paque centrifugation, as previously described in Grammatikos et al., Clin Immunol. 2014; 150: 192-200.
Human T cells were purified from frozen peripheral blood mononuclear cells (PBMC) isolated from SLE or normal donor patients. Briefly, frozen PBMCs were thawed in a 37° C. water bath for 1 to 2 minutes, and then gently added to pre-warmed RPMI1640 medium with 10% FBS (total 10 ml). The cells were centrifuged at 2000 rpm for 5 minutes at room temperature. The cell pellet was washed with 5 ml of pre-warmed RPMI 1640 medium with 10% FBS three times, followed by a final D-PBS (no calcium, no magnesium buffer) wash. Human T cells were then purified by a Pan T Cell Isolation Kit (human) from Miltenyi Biotec, as described above.
The purity of isolated T cells routinely exceeded 94%. After purification, T cells were resuspended in RPMI1640 medium with 10% FBS and 1×10^5 cells/well in 100 ul total volume was loaded onto a 96-well plate, either left uncoated or precoated with anti-CD3 antibody (1 ug/ml) (OKT3; Biolegend). […]
For cell viability, an MTT (thiazolyl Blue tetrazolium Bromide, M2128, Sigma, St. Louis, Mo.) assay was employed. […] Spectrophotometric absorbance of the samples was assessed using a microplate reader at a wavelength of 595 nm. T cell numbers/proliferation was assessed by cell count using a hemocytometer. […] After mixing, 10 μl of the mixture was loaded onto the hemocytometer and the total average number of cells/well was calculated. […]

Cn1c(-c2cccc(NC(=O)C(=O)Nc3ccc(-c4ccsc4)cc3)c2)c(I)c2cc(C(=O)O)c(O)cc21 [11a-1]
downstream ERK and AKT signaling in tissue lysates (ERK and AKT signaling): reversed aberrant downstream ERK and AKT signaling | T cell viability ([1]; human SLE T cell cultures): no differences in viability | T cell proliferation in response to CD3 ([1]; human SLE T cells, 48 hours, 10 μg/ml): reduced T cell proliferation | secretion of IFNγ in response to T cell activation ([1]; human SLE T cells, CD3 antibody, 48 hours, 10 μg/ml): significantly decreased the secretion of IFNγ activity
